# Where two headings read alike, the source gives them in different places.
# System: firefly luciferase activity
# Experiment: Dual-Glo firefly/renilla luciferase reporter assay in cells
# Assay type: cell-based
# [1] = 24 hrs compound treatment, starting from 3 uM, 1:3 dilution, 10 points, read-out: Firefly Luciferase IC50
# [2] = 24 h, read-out: Firefly Luciferase IC50 (μM)
IC50 [1] [µM],SMILES,IC50 [2] [µM]
< 0.1,"OC1(Cn2nnc(-c3ccccc3Nc3ccc(C(F)(F)F)cc3)n2)CCOC1 (stereo not drawn) [Compound 151, 3-[[5-[2-[4-(trifluoromethyl)anilino]phenyl]tetrazol-2-yl]methyl]tetrahydro furan-3-ol]",
0.1 to 1,"OCCn1nnc(-c2ccccc2Nc2cccc(OC(F)(F)F)c2)n1 [Compound 24, 2-(5-(2-((3-(Trifluoromethoxy)phenyl)amino)phenyl)-2H-tetrazol-2-yl)ethanol]",
1 to 5,"CN(C)CCCn1nnc(-c2ccccc2Nc2ccc(OC(F)(F)F)cc2)n1 [Compound 63, 2-(2-(3-(dimethylamino)propyl)-2H-tetrazol-5-yl)-N-(4-(trifluoromethoxy)phenyl) Aniline]",
1 to 5,CC(C)(C)OC(=O)N1CCCC(O)(Cn2nnc(-c3ccccc3Nc3ccc(C(F)(F)F)cc3)n2)C1 (stereo not drawn) [Compound 147],
,"NC(=O)Cn1nnc(-c2ccccc2Nc2ccc(C(F)(F)F)cc2)n1 [Compound 102, 2-[5-[2-[4-(trifluoromethyl)anilino]phenyl]tetrazol-2-yl]acetamide]",< 0.1
0.1 to 1,"O[C@@H]1CNC[C@H]1n1nnc(-c2ccccc2Nc2ccc(C(F)(F)F)cc2)n1 [Compound 233, (3R,4R)-4-(5-(2-((4-(trifluoromethyl)phenyl)amino)phenyl)-2H-tetrazol-2-yl)pyrrolidin-3-ol]",
,"OCCn1nnc(-c2c(F)cccc2Nc2ccc(C(F)(F)F)cc2)n1 [Compound 187, 2-(5-(2-fluoro-6-((4-(trifluoromethyl)phenyl)amino)phenyl)-2H-tetrazol-2-yl)ethan-1-ol]",< 0.1
,"Cc1ccc(-c2nnn(CCO)n2)c(Nc2ccc(C(F)(F)F)cc2)c1 [Compound 243, 2-(5-(4-methyl-2-((4-(trifluoromethyl)phenyl)amino)phenyl)-2H-tetrazol-2-yl)ethanol]",< 0.1
0.1 to 1,"OCCn1nnc(-c2cc(C(F)F)ccc2Nc2ccc(C(F)(F)F)cc2)n1 [Compound 266, 2-[5-[5-(difluoromethyl)-2-[4-(trifluoromethyl)anilino]phenyl]tetrazol-2-yl]ethanol]",
0.1 to 1,"NCCn1cnc(-c2ccccc2Nc2ccc(C(F)(F)F)cc2)n1 [Compound 230, 2-(1-(2-aminoethyl)-1H-1,2,4-triazol-3-yl)-N-(4-(trifluoromethyl)phenyl)aniline]",
1 to 5,"CCOC(=O)Cn1ncc(-c2ccccc2Nc2cccc(C(F)(F)F)c2)c1C [Compound 90, ethyl 2-(5-methyl-4-(2-((3-(trifluoromethyl)phenyl)amino)phenyl)-1H-pyrazol-1-yl)acetate]",
< 0.1,"CO[C@@H](C)[C@H](C)n1nnc(-c2ccccc2Nc2ccc(C(F)(F)F)cc2)n1 [Compound 210, 2-(2-((2S,3S)-3-methoxybutan-2-yl)-2H-tetrazol-5-yl)-N-(4-(trifluoromethyl)phenyl)aniline]",
< 0.1,"CO[C@@H](C)[C@@H](C)n1nnc(-c2ccccc2Nc2ccc(C(F)(F)F)cc2)n1 [Compound 212, 2-(2-((2R,3S)-3-methoxybutan-2-yl)-2H-tetrazol-5-yl)-N-(4-(trifluoromethyl)phenyl)aniline]",
,"CCOC(=O)Cn1nnc(-c2ccccc2Nc2ccc(F)cc2)n1 [Compound 7, ethyl 2-[5-[2-(4-fluoroanilino)phenyl]tetrazol-2-yl]acetate]",0.1 to 1
,"OCCn1nnc(-c2cccnc2Nc2ccc(C(F)(F)F)cc2)n1 [Compound 69, 2-(5-(2-((4-(trifluoromethyl)phenyl)amino)pyridin-3-yl)-2H-tetrazol-2-yl)ethanol]",0.1 to 1
,"OCCn1nnc(-c2cccc(F)c2Nc2ccc(C(F)(F)F)cc2)n1 [Compound 188, 2-(5-(3-fluoro-2-((4-(trifluoromethyl)phenyl)amino)phenyl)-2H-tetrazol-2-yl)ethanol]",< 0.1
0.1 to 1,"FC(F)(F)c1ccc(Nc2ccccc2-c2nnn(-c3ccccn3)n2)cc1 [Compound 140, 2-[2-(2-pyridyl)tetrazol-5-yl]-N-[4-(trifluoromethyl)phenyl]aniline]",
0.1 to 1,"CCOC(=O)Cn1cc(-c2ccccc2Nc2cccc(C(F)(F)F)c2)cn1 [Compound 58, ethyl 2-(4-(2-((3-(trifluoromethyl)phenyl)amino)phenyl)-1H-pyrazol-1-yl)acetate]",

IC50 [1] [µM],SMILES,IC50 [2] [µM]
0.1 to 1,"O=C(O)Cn1cc(-c2ccccc2Nc2ccc(C(F)(F)F)cc2)cn1 [Compound 61, 2-(4-(2-((4-(trifluoromethyl)phenyl)amino)phenyl)-1H-pyrazol-1-yl)acetic Acid]",
1 to 5,"FC(F)(F)Oc1ccc(Nc2ccccc2-c2nnn(Cc3cccnc3)n2)cc1 [Compound 51, 2-[2-(3-pyridylmethyl)tetrazol-5-yl]-N-[4-(trifluoromethoxy)phenyl]aniline]",
,"O=C(Cn1nnc(-c2ccccc2Nc2ccc(C(F)(F)F)cc2)n1)NO [Compound 113, 2-[5-[2-[4-(trifluoromethyl)anilino]phenyl]tetrazol-2-yl]ethanehydroxamic acid]",0.1 to 1
1 to 5,"NS(=O)(=O)NCCn1nnc(-c2ccccc2Nc2ccc(C(F)(F)F)cc2)n1 [Compound 99, 2-[2-(sulfamoylamino)ethyl]-5-[2-[4-(trifluoromethyl)anilino]phenyl]tetrazole]",
1 to 5,"FC(F)(F)Oc1ccc(Nc2ccccc2-c2nnn(Cc3ccccn3)n2)cc1 [Compound 54, 2-(2-(pyridin-2-ylmethyl)-2H-tetrazol-5-yl)-N-(4-(trifluoromethoxy)phenyl)aniline]",
0.1 to 1,"Cn1nnc(-c2ccccc2Nc2ccc(C(F)(F)F)cc2)n1 [Compound 171, 2-(2-methyltetrazol-5-yl)-N-[4-(trifluoromethyl)phenyl]aniline]",
0.1 to 1,"CO[C@H](C)[C@@H](C)n1nnc(-c2ccccc2Nc2ccc(C(F)(F)F)cc2)n1 [Compound 213, 2-(2-((2R,3R)-3-methoxybutan-2-yl)-2H-tetrazol-5-yl)-N-(4-(trifluoromethyl)phenyl)aniline]",
< 0.1,"OC1(Cn2nnc(-c3ccccc3Nc3ccc(C(F)(F)F)cc3)n2)COC1 [Compound 186, 3-((5-(2-((4-(trifluoromethyl)phenyl)amino)phenyl)-2H-tetrazol-2-yl)methyl) oxetan-3-ol]",
0.1 to 1,"FCCCn1nnc(-c2ccccc2Nc2ccc(C(F)(F)F)cc2)n1 [Compound 126, 2-[2-(3-fluoropropyl)tetrazol-5-yl]-N-[4-(trifluoromethyl)phenyl]aniline]",
< 0.1,"OCC(O)Cn1nnc(-c2ccccc2Nc2ccc(C(F)(F)F)cc2)n1 (stereo not drawn) [Compound 114, 3-(5-(2-((4-(trifluoromethyl)phenyl)amino)phenyl)-2H-tetrazol-2-yl)propane-1,2-diol]",
0.1 to 1,"OCCn1nnc(-c2ccccc2Nc2ccc(Cl)c(Cl)c2)n1 [Compound 251, 2-(5-(2-((3,4-dichlorophenyl)amino)phenyl)-2H-tetrazol-2-yl)ethanol]",
< 0.1,"CNC(=O)Cn1nnc(-c2ccccc2Nc2ccc(C(F)(F)F)cc2)n1 [Compound 42, N-methyl-2-[5-[2-[4-(trifluoromethyl)anilino]phenyl]tetrazol-2-yl]acetamide]",
< 0.1,"C[C@H]([C@@H](C)O)n1nnc(-c2ccccc2Nc2ccc(C(F)(F)F)cc2)n1 [Compound 193, (2R,3R)-3-(5-(2-((4-(trifluoromethyl)phenyl)amino)phenyl)-2H-tetrazol-2-yl)butan-2-ol]",
< 0.1,"OC1(Cn2nnc(-c3ccccc3Nc3ccc(C(F)(F)F)cc3)n2)CSC1 [Compound 244, 3-[[5-[2-[4-(trifluoromethyl)anilino]phenyl]tetrazol-2-yl]methyl]thietan-3-ol]",
< 0.1,"OC(Cn1nnc(-c2ccccc2Nc2ccc(C(F)(F)F)cc2)n1)C(F)(F)F (stereo not drawn) [Compound 131, 1,1,1-trifluoro-3-[5-[2-[4-(trifluoromethyl)anilino]phenyl]tetrazol-2-yl]propan-2-ol]",
,"CCc1cccc(Nc2ccccc2-c2nnn(CCO)n2)c1 [Compound 17, 2-[5-[2-(3-ethylanilino)phenyl]tetrazol-2-yl]ethanol]",0.1 to 1
0.1 to 1,"CO[C@H](C)[C@H](C)n1nnc(-c2ccccc2Nc2ccc(C(F)(F)F)cc2)n1 [Compound 211, 2-(2-((2S,3R)-3-methoxybutan-2-yl)-2H-tetrazol-5-yl)-N-(4-(trifluoromethyl)phenyl)aniline]",
,"CC(O)Cn1nnc(-c2ccccc2Nc2ccc(C(F)(F)F)cc2)n1 (stereo not drawn) [Compound 105, 1-[5-[2-[4-(trifluoromethyl)anilino]phenyl]tetrazol-2-yl]propan-2-ol]",< 0.1

# Source: US11186554B2, “Non-fused tricyclic compounds” (VIVACE THERAPEUTICS, INC., priority 2017, dated 2021)
